For one compound, IC50, MAO-A inhibition % and MAO-B inhibition % results are on record in PMC5840146, “Structure-Activity Relationship Analysis of 3-Phenylcoumarin-Based Monoamine Oxidase B Inhibitors” (Frontiers in Chemistry, 2018).

The structures appear in SMILES notation.

Holding throughout (format): biochemical
One data set addresses T1, human CYP1A2 (Homo sapiens, UniProt P05177).
T1 construct: purchased Corning Inc
T1 sequence (P05177 1-516): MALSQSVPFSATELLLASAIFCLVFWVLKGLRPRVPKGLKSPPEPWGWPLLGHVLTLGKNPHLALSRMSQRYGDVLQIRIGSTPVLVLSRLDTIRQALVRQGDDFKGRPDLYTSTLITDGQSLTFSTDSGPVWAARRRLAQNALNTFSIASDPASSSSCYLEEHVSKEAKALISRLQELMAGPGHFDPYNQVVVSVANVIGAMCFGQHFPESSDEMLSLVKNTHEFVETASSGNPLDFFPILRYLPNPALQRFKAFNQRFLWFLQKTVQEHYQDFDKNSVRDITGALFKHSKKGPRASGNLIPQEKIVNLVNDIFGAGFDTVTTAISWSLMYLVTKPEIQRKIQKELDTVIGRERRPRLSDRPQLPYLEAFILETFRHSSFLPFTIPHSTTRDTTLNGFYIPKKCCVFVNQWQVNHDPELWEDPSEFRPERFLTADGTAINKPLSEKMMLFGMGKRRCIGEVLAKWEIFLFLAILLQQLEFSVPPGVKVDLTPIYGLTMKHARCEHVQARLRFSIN
Description: CYP1A2 inhibition, 7-ethoxyresorufin fluorescence assay.

For a further data set, the target named is T2, MAO-A (Homo sapiens, UniProt P21397).
T2 construct: purchased Sigma-Aldrich
T2 sequence (P21397 1-527): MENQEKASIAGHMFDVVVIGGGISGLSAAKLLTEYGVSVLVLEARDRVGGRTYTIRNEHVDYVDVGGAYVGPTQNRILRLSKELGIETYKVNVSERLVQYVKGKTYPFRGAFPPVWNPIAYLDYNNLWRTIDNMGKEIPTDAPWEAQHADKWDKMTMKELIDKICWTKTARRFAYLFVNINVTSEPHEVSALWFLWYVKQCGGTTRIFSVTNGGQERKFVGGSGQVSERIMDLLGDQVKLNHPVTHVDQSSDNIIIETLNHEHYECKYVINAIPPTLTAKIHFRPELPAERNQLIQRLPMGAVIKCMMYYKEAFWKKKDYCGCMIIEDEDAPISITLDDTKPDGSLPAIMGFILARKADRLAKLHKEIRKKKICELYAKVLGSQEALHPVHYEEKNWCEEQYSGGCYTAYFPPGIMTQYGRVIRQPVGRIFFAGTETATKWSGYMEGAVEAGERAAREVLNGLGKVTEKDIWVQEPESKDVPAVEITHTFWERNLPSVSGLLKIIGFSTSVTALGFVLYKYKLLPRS
Description: continuous spectrophotometric MAO-A inhibition assay. The following applies: 100 µM, 1h.

In the next data set the target is T3, MAO-B (Homo sapiens, UniProt P27338).
T3 construct: purchased Sigma-Aldrich
T3 sequence (P27338 1-520): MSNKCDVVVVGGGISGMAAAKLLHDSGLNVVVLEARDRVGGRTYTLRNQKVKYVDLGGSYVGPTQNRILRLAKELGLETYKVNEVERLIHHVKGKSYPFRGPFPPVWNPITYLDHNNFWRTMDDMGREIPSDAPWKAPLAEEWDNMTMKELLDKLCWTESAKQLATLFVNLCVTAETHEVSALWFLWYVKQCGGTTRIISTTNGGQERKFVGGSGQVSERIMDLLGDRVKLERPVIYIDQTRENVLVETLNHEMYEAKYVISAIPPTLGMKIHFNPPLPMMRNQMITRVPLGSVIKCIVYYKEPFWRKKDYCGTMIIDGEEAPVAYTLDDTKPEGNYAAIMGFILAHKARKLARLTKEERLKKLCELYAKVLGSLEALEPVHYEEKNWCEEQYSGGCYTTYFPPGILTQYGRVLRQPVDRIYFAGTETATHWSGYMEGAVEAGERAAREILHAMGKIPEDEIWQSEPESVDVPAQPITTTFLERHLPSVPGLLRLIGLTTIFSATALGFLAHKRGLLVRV
The data set can be described thus: continuous spectrophotometric MAO-B inhibition assay. The following applies: 10 µM, 2h.

`Cc1ccc(-c2cc3ccc(O)cc3oc2=O)cc1` [derivative 27] displayed an IC50 at human CYP1A2 of 180 µM. On MAO-A, this compound had an MAO-A inhibition % of 43.83%. Besides, the MAO-B inhibition % at MAO-B turned out to be 61.91%.
